Values of other authors, collected in patent publication US12728162B2, “Methods of treating lung cancer with a PD-1 axis binding antagonist, a platinum agent, and a topoisomerase II inhibitor” (Genentech, Inc., priority 2018, dated 2026).

## [NH3+][Pt-2]1([NH3+])[O]C(=O)C2(CCC2)C(=O)[O]1 [Carboplatin, platinum, diammine [1,1-cyclobutanedicarboxylato (2-)-O,O′]—, (SP-4-2)]
ethanol, acetone, and dimethylacetamide
  solubility in organic solvents: virtually insoluble
water
  solubility in water: approximately 14 mg/mL
